In experiment [1] the target is T1, ligand binding domain of LXRα-RXR heterodimers (Homo sapiens, UniProt Q13133).
T1 construct: expressed in transfected cells; host or cells: CV-1 cells
T1 sequence (Q13133 209-447 limits assumed): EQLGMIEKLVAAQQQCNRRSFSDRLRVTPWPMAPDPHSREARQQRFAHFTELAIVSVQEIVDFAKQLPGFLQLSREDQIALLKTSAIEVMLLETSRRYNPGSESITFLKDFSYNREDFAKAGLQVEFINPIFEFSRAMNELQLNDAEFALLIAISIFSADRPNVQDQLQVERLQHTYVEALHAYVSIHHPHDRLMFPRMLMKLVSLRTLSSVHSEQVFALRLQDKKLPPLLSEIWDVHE
T1 sequence (P19793 227-458 partner limits assumed): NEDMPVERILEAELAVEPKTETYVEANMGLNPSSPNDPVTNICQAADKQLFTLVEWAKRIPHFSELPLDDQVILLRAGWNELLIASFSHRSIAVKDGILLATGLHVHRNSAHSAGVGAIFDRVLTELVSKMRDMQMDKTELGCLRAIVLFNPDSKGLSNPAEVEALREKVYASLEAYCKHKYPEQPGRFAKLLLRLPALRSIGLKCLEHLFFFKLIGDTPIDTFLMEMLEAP
The experiment is described as follows: LXR ligand binding domain mediated activity, UASGx4 TK-Luc reporter in CV-1 cells. The format is cell-based. The settings on record: 20 μM. Here is the method:
CV-1 cells were grown in DMEM supplemented with 10% resin-charcoal stripped fetal bovine serum, 50 U/ml penicillin G and 50 μg/ml streptomycin sulfate at 37° C. in 5% CO2. Cells were plated to 50-80% confluence one day prior to transfection using phenol red-free DMEM-FBS. The cells were transfected by lipofection using N-[1-(2,3-dioleoyloxy)propyl]-N,N,N-ammonium methyl sulfate according to manufacturer's instructions (Boehringer Mannheim).
Genes encoding the following full-length proteins, which are suitable for use in the studies described herein, were cloned into pCMX: human RXRα (Gene Bank accession X52773) and human LXRα (GenBank accession U22662). The cells were transfected with CMX-βgal and luciferase constructs. The CMX-βGal construct contained the ligand binding domain of human RXR (hRXRα) and the ligand binding domain of human LXRα (hLXRα) as indicated in FIG. 1. The luciferase reporter construct (LXREx3 TK-Luc) contained the herpes virus thymidine kinase promoter (−105/+51) linked to three copies of the response element LXRE. After transfection, the cells were treated with 20 μM of a synthetic azole test compound or vehicle alone for 40 hours in phenol red-free DMEM-FBS. After exposure to the candidate antagonist compounds, cells were harvested and assayed for luciferase and β-galactosidase activity.
The reporter gene was UASGx4 TK-Luc.

The subject of a further experiment is SREBP-1c expression. Nature of the experiment: Real-time PCR of SREBP-1c expression in HepG2 cells. It counts as cell-based, human. The settings on record: Clotrimazole 10 μM plus T0901317 100 nM, 24 hours. The method, then:
Real time PCR was then performed on cDNA derived from RNA isolated form the treated HepG2 cells as follows. Real time quantitative PCR assays were performed using an Applied Biosystems 7700 sequence detector (Applied Biosystems). Each reaction mixture contained 50 ng cDNA, 1.25 pmol each forward and reverse primer, and […] 2× SYBR Green PCR master mix (Applied Biosystems) in a final volume of 25 μl. The PCR conditions were 50° C. for 2 min, 95° C. for 10 min, and 40 cycles of 95° C. for 15 sec and 60° C. for 1 min. Samples were run in duplicate for each primer pair. Expression of glyceraldehyde-3-phosphate dehydrogenase (GAPDH) was analyzed in parallel as an internal control. Each sample was normalized to GAPDH and is represented in the Figure showing the results as arbitrary units with the expression levels in untreated cells assigned a value of one. The primer sequences are as follows: human SREBP-1c forward [NT] ID NO:1); human SREBP-1c reverse [NT] ID NO:2); human GAPDH forward [NT] ID NO:3) and human GAPDH reverse [NT] ID NO:4).

Experiment [2] relates to SRE reporter (FAS proximal promoter). The experiment is described as follows: SRE reporter (FAS proximal promoter-luciferase) assay in CV-1 cells. The format is cell-based. The method, then: Since LXR regulates SREBP-1c expression, LXR also should regulate activities downstream of SREBP-1c. To test this, CV-1 cells were transiently transfected with as in Example 6, but with the SRE or the SREm reporter, SREBP-1c-dependent reporter constructs consisting of the FAS proximal promoter linked to the luciferase gene. […] See Wang et al., Mol. Cell 3:543-553, 1999, the disclosures of which are hereby incorporated by reference. Cells then were treated as in Example 6 with the indicated compounds, Clotrimazole or 25-hydroxycholesterol (25-OH cholesterol). 25-OH cholesterol is known to repress the synthesis of SREBP-1c and is therefore used to eliminate the effects of this transcription factor on the FAS promoter (SRE).

A further experiment concerns the target T2, LXRα (Homo sapiens, UniProt Q13133).
T2 construct: expressed in transfected cells; host or cells: CV-1 cells
T2 sequence (Q13133 209-447 limits assumed): T1 sequence (Q13133 209-447 limits assumed)
T2 sequence (P19793 227-458 partner limits assumed): T1 sequence (P19793 227-458 partner limits assumed)
The experiment is described as follows: Transient transfection assay Gal-hLXRα + RXR LBD, UASGx4 TK Luc reporter, CV-1 cells. The format is cell-based. The method, then:
(§1) Synthetic compounds were screened in an effort to find more specific LXR inhibitors. CV-1 cells were maintained and transfected using known methods. Forman et al., Cell 81: 687-693, 1995. CV-1 cells were transiently transfected with Gal-hLXRα, the RXR LBD, the UASGx4 TK Luc reporter and CMX-β-gal as an internal control, either in standard or in lipid-stripped serum. After transfection, cells were treated for approximately 40 hours with phenol red-free DMEM-FBS containing the indicated compounds at the following concentrations: T0901317 (100 nM), Clotrimazole (10 μM), S883417(10 μM) and S100250 (10 μM), unless otherwise specified. After exposure to ligand, the cells were harvested and assayed for luciferase and β-galactosidase activity. The luciferase activity was normalized to the internal β-galactosidase control (reporter activity).
(§2) The ability of these compounds to repress LXRα and LXRβ was compared by transfecting CV-1 cells with either the RXR LBD alone or the RXR LBD together with either Gal-LXRα or Gal-LXRβ.
(§3) Transfections were performed as described above, with increasing concentrations of Clotrimazole.

A further experiment has as its target T3, LXRβ (Homo sapiens, UniProt P55055).
T3 construct: expressed in transfected cells; host or cells: CV-1 cells
T3 sequence (P55055 222-460 limits assumed): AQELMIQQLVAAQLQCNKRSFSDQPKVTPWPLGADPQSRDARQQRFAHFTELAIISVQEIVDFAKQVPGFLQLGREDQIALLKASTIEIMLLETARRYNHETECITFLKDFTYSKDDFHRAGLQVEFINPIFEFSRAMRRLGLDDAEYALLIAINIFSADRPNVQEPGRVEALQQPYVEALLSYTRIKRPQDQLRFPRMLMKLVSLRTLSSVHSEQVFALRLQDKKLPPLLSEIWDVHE
T3 sequence (P19793 227-458 partner limits assumed): T1 sequence (P19793 227-458 partner limits assumed)
The experiment is described as follows: Transient transfection assay Gal-LXRβ + RXR LBD, UASGx4 TK Luc reporter, CV-1 cells. The format is cell-based. Here is the method:
as §1, §2, §3

In a further experiment the target is human CAR (Homo sapiens, UniProt Q14994). The conditions noted are these: cited from earlier work.
Sequence of human CAR (Q14994 whole entry): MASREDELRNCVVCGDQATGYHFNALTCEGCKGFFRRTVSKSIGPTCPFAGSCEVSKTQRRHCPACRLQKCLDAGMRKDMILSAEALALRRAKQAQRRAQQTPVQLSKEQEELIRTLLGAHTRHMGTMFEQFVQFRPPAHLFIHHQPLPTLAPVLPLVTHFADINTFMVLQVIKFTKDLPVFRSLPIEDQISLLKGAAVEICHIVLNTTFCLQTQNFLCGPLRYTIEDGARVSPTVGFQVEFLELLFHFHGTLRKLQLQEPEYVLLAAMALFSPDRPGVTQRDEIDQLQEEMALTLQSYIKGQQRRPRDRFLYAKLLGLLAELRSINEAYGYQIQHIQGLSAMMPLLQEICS
[3] abbreviates: 10 μM, approximately 40 hours, lipid-stripped serum.

As to `Clc1ccccc1C(c1ccccc1)(c1ccccc1)n1ccnc1` [Clotrimazole], the “inhibition of constitutive activation by the LXRα-RXR ligand binding domain (UASGx4 TK-Luc)” value in experiment [1] was “inhibit constitutive activation”. The “SREBP-1c expression compared to T0901317 alone” value with SREBP-1c expression was “significantly reduced”. The “LXRα induction of SRE reporter activity” value in experiment [2] (LXRα co-transfected (3-fold increase)) was “prevented this induction”. Besides, the “LXRβ induction of SRE reporter activity” value in experiment [2] (LXRβ co-expression (almost 2-fold increase)) is listed as “prevented this induction”. Further, the “activity of reporter containing mutated SRE” value in experiment [2] (SREm reporter) was “no significant effects”. Also, the “repression of SRE reporter” value in experiment [2] (absence of LXR) is listed as “only a weak repressive effect”. Moreover, the “repression of LXRα activity” value at LXRα (setting [3]) is “powerful antagonist”. Besides, the “antagonist potency LXRα compared with LXRβ” value on LXRα (dose-response, FIG. 5) is “more potent antagonist of LXRα than LXRβ”. Besides, the concentration giving a half-maximal response (EC50) – broadly, the concentration that produces a half-maximal response – at LXRα (dose-response, increasing concentrations, read-out: EC50 for repression of LXRα constitutive activity) is around 10 µM; on LXRβ (dose-response, increasing concentrations, read-out: EC50 for repression of LXRβ constitutive activity), around 10 µM. In addition, the “repression of LXRβ activity” value at LXRβ (setting [3]) is “powerful antagonist”. Moreover, the “activity on human CAR” value on human CAR is “antagonizes”.

The record behind these values is patent publication US20050009837A1, “Modulators of lipid metabolism and methods of use” (City of Hope, priority 2003, published 2005).
